According to PubChem BioAssay AID1919003 (Molecular Pharmacology Branch, DTP, NCI, 2023):
Values joined by “and” are separate entries in the source; they are usually repeats but may differ in a detail not shown here. Equal values may be shown once.

Tested on: 786-0 complex spheroids with HUVEC/MSC, growth % test/control
Experiment: Anticancer human tumor 786-0 cell line growth inhibition [AhR];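 also: compound exposure lasted seven days before the read-out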
Details: for viability, T/C: stronger effect = lower value
How it was run: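 Complex tumor spheroids co-cultured with HUVEC and human MSC stroma; AhR antagonists tested in combination with standard-of-care and investigational agents. Top concentration at or near clinical Cmax (else 10 microM), half-log dilutions; growth expressed as percent test/control.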

[1] = curve of first compound, second compound 0.1 µM
[2] = curve of first compound, second compound 0.316 µM
[3] = curve of first compound, second compound 1 µM
[4] = curve of first compound, second compound 3.16 µM
[5] = curve of first compound, second compound 10 µM
[6] = second compound 0.1 µM, first compound 0.0316 µM
[7] = second compound 0.1 µM, first compound 0.1 µM
[8] = second compound 0.316 µM, first compound 0.0316 µM
[9] = second compound 0.316 µM, first compound 0.1 µM
[10] = second compound 1 µM, first compound 0.0316 µM
[11] = second compound 1 µM, first compound 0.1 µM
[12] = second compound 3.16 µM, first compound 0.0316 µM
[13] = second compound 3.16 µM, first compound 0.1 µM
[14] = second compound 10 µM, first compound 0.0316 µM
[15] = second compound 10 µM, first compound 0.1 µM
[16] = second compound 0.1 µM, first compound 0.316 µM
[17] = second compound 0.1 µM, first compound 1 µM
[18] = second compound 0.1 µM, first compound 3.16 µM
[19] = second compound 0.1 µM, first compound 10 µM
[20] = second compound 0.316 µM, first compound 0.316 µM
[21] = second compound 0.316 µM, first compound 1 µM
[22] = second compound 0.316 µM, first compound 3.16 µM
[23] = second compound 0.316 µM, first compound 10 µM
[24] = second compound 1 µM, first compound 0.316 µM
[25] = second compound 1 µM, first compound 1 µM
[26] = second compound 1 µM, first compound 3.16 µM
[27] = second compound 1 µM, first compound 10 µM
[28] = second compound 3.16 µM, first compound 0.316 µM
[29] = second compound 3.16 µM, first compound 1 µM
[30] = second compound 3.16 µM, first compound 3.16 µM
[31] = second compound 3.16 µM, first compound 10 µM
[32] = second compound 10 µM, first compound 0.316 µM
[33] = second compound 10 µM, first compound 1 µM
[34] = second compound 10 µM, first compound 3.16 µM
[35] = second compound 10 µM, first compound 10 µM

Structure (SMILES): CC[C@@]1(O)C(=O)OCc2c1cc1n(c2=O)Cc2cc3c(CN(C)C)c(O)ccc3nc2-1 + Cc1ccccc1N=Nc1ccc(NC(=O)c2ccnn2C)c(C)c1
- IC50 [1]: 48.5 nM
- IC50 [2]: 41 nM
- IC50 [3]: 38.8 nM
- IC50 [4]: 30.9 nM
- IC50 [5]: 27 nM
- viability, T/C (second compound 0.1 µM, first compound 0.000316 µM): 107%
- viability, T/C (second compound 0.1 µM, first compound 0.001 µM): 103%
- viability, T/C (second compound 0.1 µM, first compound 0.00316 µM): 104%
- viability, T/C (second compound 0.1 µM, first compound 0.01 µM): 109%
- viability, T/C [6]: 68.1%
- viability, T/C [7]: 19.6%
- viability, T/C (second compound 0.316 µM, first compound 0.000316 µM): 101%
- viability, T/C (second compound 0.316 µM, first compound 0.001 µM): 99.4%
- viability, T/C (second compound 0.316 µM, first compound 0.00316 µM): 107%
- viability, T/C (second compound 0.316 µM, first compound 0.01 µM): 103%
- viability, T/C [8]: 59.8%
- viability, T/C [9]: 16.6%
- viability, T/C (second compound 1 µM, first compound 0.000316 µM): 102%
- viability, T/C (second compound 1 µM, first compound 0.001 µM): 101%
- viability, T/C (second compound 1 µM, first compound 0.00316 µM): 106%
- viability, T/C (second compound 1 µM, first compound 0.01 µM): 103%
- viability, T/C [10]: 57.3%
- viability, T/C [11]: 15.9%
- viability, T/C (second compound 3.16 µM, first compound 0.000316 µM): 96.4%
- viability, T/C (second compound 3.16 µM, first compound 0.001 µM): 101%
- viability, T/C (second compound 3.16 µM, first compound 0.00316 µM): 93.4%
- viability, T/C (second compound 3.16 µM, first compound 0.01 µM): 92.3%
- viability, T/C [12]: 49.1%
- viability, T/C [13]: 18.7%
- viability, T/C (second compound 10 µM, first compound 0.000316 µM): 90.7%
- viability, T/C (second compound 10 µM, first compound 0.001 µM): 89.5%
- viability, T/C (second compound 10 µM, first compound 0.00316 µM): 86.4%
- viability, T/C (second compound 10 µM, first compound 0.01 µM): 83.6%
- viability, T/C [14]: 44.6%
- viability, T/C [15]: 16.7%

Structure (SMILES): O=C(C=Cc1cccc(S(=O)(=O)Nc2ccccc2)c1)NO
- viability, T/C (compound 0.0316 µM): 104% and 102% and 97.4%
- viability, T/C (compound 0.1 µM): 101% and 99.7% and 102%
- viability, T/C (compound 0.316 µM): 101% and 103% and 102%
- viability, T/C (compound 1 µM): 101% and 102% and 112%
- viability, T/C (compound 3.16 µM): 75.2% and 93.4% and 85.6%
- viability, T/C (compound 10 µM): 16.8% and 22.8% and 12.4%
- IC50 (curve of compound): 5200 nM and 6410 nM and 5530 nM

Structure (SMILES): CC1(C)CCC(CN2CCN(c3ccc(C(=O)NS(=O)(=O)c4ccc(NCC5CCOCC5)c([N+](=O)[O-])c4)c(Oc4cnc5[nH]ccc5c4)c3)CC2)=C(c2ccc(Cl)cc2)C1 + CC(CO)NC(=O)c1cc(-c2ccc(Cl)cc2)nn(-c2cnn(C)c2)c1=O
- IC50 [1]: > 10000 nM
- IC50 [2]: > 10000 nM
- IC50 [3]: > 10000 nM
- IC50 [4]: > 10000 nM
- IC50 [5]: > 10000 nM
- viability, T/C [6]: 109%
- viability, T/C [7]: 101%
- viability, T/C [16]: 106%
- viability, T/C [17]: 99.9%
- viability, T/C [18]: 90.7%
- viability, T/C [19]: 77.7%
- viability, T/C [8]: 105%
- viability, T/C [9]: 115%
- viability, T/C [20]: 101%
- viability, T/C [21]: 98.4%
- viability, T/C [22]: 91.3%
- viability, T/C [23]: 81.3%
- viability, T/C [10]: 105%
- viability, T/C [11]: 103%
- viability, T/C [24]: 106%
- viability, T/C [25]: 97.9%
- viability, T/C [26]: 104%
- viability, T/C [27]: 80.8%
- viability, T/C [12]: 116%
- viability, T/C [13]: 111%
- viability, T/C [28]: 104%
- viability, T/C [29]: 96.4%
- viability, T/C [30]: 82.9%
- viability, T/C [31]: 82.5%
- viability, T/C [14]: 114%
- viability, T/C [15]: 135%
- viability, T/C [32]: 109%
- viability, T/C [33]: 122%
- viability, T/C [34]: 98.4%
- viability, T/C [35]: 86.4%

Structure (SMILES): CCN(c1cc(-c2ccc(CN3CCOCC3)cc2)cc(C(=O)NCc2c(C)cc(C)[nH]c2=O)c1C)C1CCOCC1 + Cc1cncc(-c2nc(NCCc3c[nH]c4ccccc34)c3ncn(C(C)C)c3n2)c1
- IC50 [1]: > 3000 nM
- IC50 [2]: > 3000 nM
- IC50 [3]: > 3000 nM
- IC50 [4]: > 3000 nM
- IC50 [5]: < 9.49 nM
- viability, T/C (second compound 0.1 µM, first compound 0.00949 µM): 121%
- viability, T/C (second compound 0.1 µM, first compound 0.03 µM): 119%
- viability, T/C (second compound 0.1 µM, first compound 0.0949 µM): 112%
- viability, T/C (second compound 0.1 µM, first compound 0.3 µM): 121%
- viability, T/C (second compound 0.1 µM, first compound 0.949 µM): 120%
- viability, T/C (second compound 0.1 µM, first compound 3 µM): 131%
- viability, T/C (second compound 0.316 µM, first compound 0.00949 µM): 125%
- viability, T/C (second compound 0.316 µM, first compound 0.03 µM): 120%
- viability, T/C (second compound 0.316 µM, first compound 0.0949 µM): 128%
- viability, T/C (second compound 0.316 µM, first compound 0.3 µM): 131%
- viability, T/C (second compound 0.316 µM, first compound 0.949 µM): 131%
- viability, T/C (second compound 0.316 µM, first compound 3 µM): 138%
- viability, T/C (second compound 1 µM, first compound 0.00949 µM): 113%
- viability, T/C (second compound 1 µM, first compound 0.03 µM): 118%
- viability, T/C (second compound 1 µM, first compound 0.0949 µM): 113%
- viability, T/C (second compound 1 µM, first compound 0.3 µM): 114%
- viability, T/C (second compound 1 µM, first compound 0.949 µM): 126%
- viability, T/C (second compound 1 µM, first compound 3 µM): 127%
- viability, T/C (second compound 3.16 µM, first compound 0.00949 µM): 75.8%
- viability, T/C (second compound 3.16 µM, first compound 0.03 µM): 73.8%
- viability, T/C (second compound 3.16 µM, first compound 0.0949 µM): 79.2%
- viability, T/C (second compound 3.16 µM, first compound 0.3 µM): 73.5%
- viability, T/C (second compound 3.16 µM, first compound 0.949 µM): 74.4%
- viability, T/C (second compound 3.16 µM, first compound 3 µM): 76.9%
- viability, T/C (second compound 10 µM, first compound 0.00949 µM): 16%
- viability, T/C (second compound 10 µM, first compound 0.03 µM): 14.8%
- viability, T/C (second compound 10 µM, first compound 0.0949 µM): 23.9%
- viability, T/C (second compound 10 µM, first compound 0.3 µM): 14.8%
- viability, T/C (second compound 10 µM, first compound 0.949 µM): 4.25%
- viability, T/C (second compound 10 µM, first compound 3 µM): 0.53%

Structure (SMILES): Nc1ccn(C2OC(CO)C(O)C2(F)F)c(=O)n1 (configuration not stated) + Cc1ccccc1N=Nc1ccc(NC(=O)c2ccnn2C)c(C)c1
- IC50 [1]: < 31.6 nM
- IC50 [2]: < 31.6 nM
- IC50 [3]: < 31.6 nM
- IC50 [4]: < 31.6 nM
- IC50 [5]: < 31.6 nM
- viability, T/C [6]: 8.08%
- viability, T/C [7]: 6.67%
- viability, T/C [16]: 7.73%
- viability, T/C [17]: 5.06%
- viability, T/C [18]: 7.17%
- viability, T/C [19]: 6.66%
- viability, T/C [8]: 7.8%
- viability, T/C [9]: 6.77%
- viability, T/C [20]: 5.95%
- viability, T/C [21]: 8.69%
- viability, T/C [22]: 7.54%
- viability, T/C [23]: 7.11%
- viability, T/C [10]: 6.79%
- viability, T/C [11]: 6.35%
- viability, T/C [24]: 7.35%
- viability, T/C [25]: 5.82%
- viability, T/C [26]: 7.07%
- viability, T/C [27]: 6.7%
- viability, T/C [12]: 7.91%
- viability, T/C [13]: 5.76%
- viability, T/C [28]: 6.46%
- viability, T/C [29]: 4.78%
- viability, T/C [30]: 6.9%
- viability, T/C [31]: 7.29%
- viability, T/C [14]: 9.54%
- viability, T/C [15]: 8.5%
- viability, T/C [32]: 7.09%
- viability, T/C [33]: 6.47%
- viability, T/C [34]: 5.53%
- viability, T/C [35]: 6.11%
